In PubChem BioAssay (NCI):
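Cultured in 96-well plates, cells were exposed to test compound for 48 hours across five concentrations. GI50 is the concentration that inhibits growth by half. TGI marks complete inhibition of growth.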

Legend:
Experiment in all cases: inhibition of tumour cell growth, NCI panel, 48 h
[1] = tested on: 786-0 renal
[2] = tested on: T-47D breast
[3] = tested on: MDA-N
[4] = tested on: DU-145 prostate
[5] = tested on: BT-549 breast
[6] = tested on: LOX IMVI melanoma
[7] = tested on: MCF7 breast
[8] = tested on: SF-295 CNS
[9] = tested on: OVCAR-8 ovarian
[10] = tested on: SNB-78 CNS
[11] = tested on: DMS 114 small cell lung

SMILES: NC(=O)CCSC(CC(=O)c1ccc(Cl)cc1)c1ccc(Cl)cc1 (stereo not given)
- TGI [1]: > 100 µM
- TGI [2]: 57.3 µM
- TGI [3]: 59.8 µM
- TGI [4]: 85.4 µM
- TGI [5]: 80 µM
- TGI [6]: 25.5 µM
- TGI [7]: 47.4 µM
- TGI [8]: 78.1 µM
- TGI [9]: 32.3 µM

SMILES: COC(=O)c1ccc2c(c1)sc1nc(-c3ccc(OC)cc3)cn12
- TGI [1]: > 100 µM
- TGI [2]: > 100 µM
- TGI [3]: > 100 µM
- TGI [4]: > 100 µM
- TGI [5]: > 100 µM
- TGI [6]: > 100 µM
- TGI [7]: > 100 µM
- TGI [8]: > 100 µM
- TGI [9]: > 100 µM

SMILES: Cc1ccc2c3c1[C@@H]1O[C@@H]1c1cccc(c1-3)[C@@H]1O[C@H]21
- TGI [2]: 20.9 µM
- TGI [3]: 30.5 µM
- TGI [4]: 22.9 µM
- TGI [5]: 32.7 µM
- TGI [6]: 7.38 µM
- TGI [7]: 34.8 µM
- TGI [8]: 31.4 µM
- TGI [9]: 40.5 µM

SMILES: Cc1cc2c(cc1Cl)SC(c1ccccc1O)NS2(=O)=O (stereo not given)
- TGI [1]: > 100 µM
- TGI [2]: 55.1 µM
- TGI [4]: > 100 µM
- TGI [5]: > 100 µM
- TGI [6]: > 100 µM
- TGI [7]: > 100 µM
- TGI [8]: > 100 µM
- TGI [9]: > 100 µM

SMILES: Cc1ccc(C(=O)Nc2ncn(C3CC(O)C(CO)O3)c(=O)n2)cc1 (stereo not given)
- TGI [10]: > 100 µM
- TGI [11]: > 100 µM
- TGI [6]: > 100 µM
- TGI [7]: > 100 µM
- TGI [8]: > 100 µM
- TGI [9]: > 100 µM

SMILES: CC(C)(C)c1cc(-c2nc3ccc(N4CCN(CCO)CC4)cc3[nH]2)cc(C(C)(C)C)c1O
- GI50 [2]: 2.86 µM
- TGI [2]: > 100 µM
- GI50 [4]: 4.08 µM
- TGI [4]: > 100 µM
- GI50 [6]: 1.86 µM
- TGI [6]: 3.43 µM
- GI50 [9]: 6.53 µM
- TGI [9]: > 100 µM

SMILES: N=C(N)c1ccc(N=Nc2c(O)ccc3cc4c(N=Nc5ccc(C(=N)N)cc5)c(O)ccc4cc23)cc1
- TGI [1]: > 100 µM
- TGI [2]: > 100 µM
- TGI [3]: > 100 µM
- TGI [4]: > 100 µM
- TGI [5]: > 100 µM
- TGI [7]: > 100 µM
- TGI [8]: > 100 µM
- TGI [9]: > 100 µM

SMILES: CCCCCCCCCCCCSC(=S)c1c(C)[nH]n(CCCCCCCCCCCC)c1=O
- TGI [10]: > 100 µM
- TGI [11]: > 100 µM
- TGI [6]: > 100 µM
- TGI [8]: > 100 µM
- TGI [9]: > 100 µM

SMILES: N#Cc1c(-c2ccc(Cl)cc2)c2c([nH]c1=O)-c1cc([N+](=O)[O-])ccc1CCC2
- TGI [1]: 79.9 µM
- TGI [2]: > 100 µM
- TGI [3]: > 100 µM
- TGI [4]: > 100 µM
- TGI [5]: 36.3 µM
- TGI [6]: 37.9 µM
- TGI [7]: 83 µM
- TGI [8]: 45.3 µM
- TGI [9]: 50.8 µM

SMILES: CCN(CCO)CCNc1ccc(C)c2sc3ccccc3c(=O)c12
- TGI [1]: 8.57 µM
- TGI [2]: 7.43 µM
- TGI [3]: 3.16 µM
- TGI [10]: 20.6 µM
- TGI [4]: 21.8 µM
- TGI [5]: 26.7 µM
- TGI [11]: 20.6 µM
- TGI [6]: 5.18 µM
- TGI [7]: 3.24 µM
- TGI [8]: 10.1 µM
- TGI [9]: 14.2 µM

SMILES: COc1ccc(N=Cc2ccc(N(CCC#N)S(=O)(=O)c3ccccc3)cc2C)cc1
- TGI [10]: > 100 µM
- TGI [11]: > 100 µM
- TGI [8]: > 100 µM
- TGI [9]: > 100 µM

SMILES: COc1cc(/C=C2\N=C(c3ccccc3)N(c3nc4ccc(Sc5ccccc5)cc4[nH]3)C2=O)cc(OC)c1OC
- TGI [1]: 42.4 µM
- TGI [2]: > 100 µM
- TGI [3]: 24.7 µM
- TGI [4]: 75.8 µM
- TGI [5]: 55.1 µM
- TGI [6]: 61.7 µM
- TGI [7]: 45.9 µM
- TGI [8]: 90.1 µM
- TGI [9]: > 100 µM

SMILES: O=c1c(-c2ccccc2)c(SCCN2CCOCC2)n(-c2ccccc2)c(=S)n1-c1ccccc1
- TGI [4]: > 100 µM
- TGI [5]: > 100 µM
- TGI [6]: > 100 µM
- TGI [7]: > 100 µM
- TGI [8]: > 100 µM
- TGI [9]: > 100 µM

SMILES: C=C1c2nc3ccccc3n2C=C(c2ccc(Cl)cc2)N1c1ccc(OCCN2CCCCC2)cc1
- TGI [1]: > 45 µM
- GI50 [2]: > 100 µM
- TGI [2]: > 100 µM
- TGI [3]: 45 µM
- GI50 [4]: > 100 µM
- TGI [4]: > 100 µM
- GI50 [5]: > 100 µM
- TGI [5]: > 100 µM
- TGI [6]: > 45 µM
- GI50 [7]: > 100 µM
- TGI [7]: > 100 µM
- TGI [8]: > 45 µM
- TGI [9]: > 45 µM

SMILES: O=C([CH-]C(=O)c1ccccc1)c1ccccc1.O=C([CH-]C(=O)c1ccccc1)c1ccccc1.O=C([CH-]C(=O)c1ccccc1)c1ccccc1.[Cl-].[Hf+4]
- GI50 [6]: 23.3 µM
- TGI [6]: > 100 µM
- GI50 [8]: 14.9 µM
- TGI [8]: > 100 µM
- GI50 [9]: 11.5 µM
- TGI [9]: 77.7 µM

SMILES: Cn1c2cn[nH]c(=O)c2c2ccc3ccccc3c21
- TGI [1]: 42.1 µM
- TGI [2]: > 100 µM
- TGI [3]: > 100 µM
- TGI [4]: > 100 µM
- TGI [5]: > 100 µM
- TGI [6]: 53.8 µM
- TGI [7]: > 100 µM
- TGI [8]: 63.4 µM
- TGI [9]: > 100 µM

SMILES: Cc1cn(Cc2cn(CC3OC(n4cc(C)c(=O)[nH]c4=O)CC3O)nn2)c(=O)[nH]c1=O (stereo not given)
- TGI [2]: > 100 µM
- TGI [3]: > 100 µM
- TGI [4]: > 100 µM
- TGI [5]: > 100 µM
- TGI [7]: > 100 µM
- TGI [8]: > 100 µM
- TGI [9]: > 100 µM
